Data taken from article PMC8217011, “Natural brominated phenoxyphenols kill persistent and biofilm-incorporated cells of MRSA and other pathogenic bacteria” (Applied Microbiology and Biotechnology, 2020).
Converted amounts (≈) assume the structure as drawn. “And” between values parts separate entries of the source, which are not always exact repeats. Identical values can stand only once.

What was measured:
[1] = test system: preformed biofilms of MRSA Mu50; test: Antibiofilm activity assay, viability by Resazurin reduction; type: cell-based, Staphylococcus aureus; settings: preformed 24 h biofilms
Experimental: Sterile flat-bottom 96-well polystyrene plates were used for the assay. Some S. aureus colonies were picked from an MHA plate and resuspend in MHB + 10% glucose, and cell density was adjusted to 10^8 cells per mL. One hundred microlitres of cell suspension was added to each well, and the plate was incubated statically for 24 h to induce growth and maturation of biofilms. After 24 h, the wells were washed three times with PBS to remove planktonic cells, and compounds were added to the wells to check for antibiofilm activity. To check for inhibition of biofilm formation, compounds were added immediately after adding of cells to the wells in sublethal concentrations. Lysostaphin, moxifloxacin and DMSO served as positive and negative controls, respectively.
Viability was measured as described above utilizing the Resazurin reduction assay. Biofilm formation was measured using crystal violet staining as described elsewhere (Christensen et al. [1985]; Stepanovic et al. [2007]). Briefly, biofilms were washed three times with PBS and allowed to air dry before 0.1% (v/v) crystal violet solution (Waldeck GmbH & Co., Münster, Germany) was added to each well. The biofilms were stained for 15 min at room temperature (RT). […] Finally, 100 μL was transferred to a fresh 96-well plate to measure absorption at 600 nm with a plate reader.

[2] = test system: preformed biofilms of P. aeruginosa POA1; test: as above; type: cell-based, Pseudomonas aeruginosa
HEK293 (CLS 300192) = test: Cytotoxicity assay (Resazurin); type: cell-based; settings: Homo sapiens, HEK293, 48 h, 2 days
Experimental: (§1) Human cell lines were grown in their respective growth medium. Cells have been counted using a haemocytometer, and cell density was adjusted to 10^6 cells/mL. A 2-fold serial dilution was prepared in 96-well U-bottom plates, and cells were sown into the wells to a final density of […]. After 2 days at 37 °C and 5% CO2, 10 μL of a 100 μg/mL Resazurin dye solution was added to each well and was incubated for several hours. The reaction was inactivated with 100 μL of a 10% formalin solution per well. Finally, the fluorescence was quantified in a plate reader with 535-nm excision and 590-nm emission wavelengths.

MRC-5 (ATCC CCL-171) = test: Cytotoxicity assay (Resazurin); type: cell-based; settings: Homo sapiens, MRC5, 48 h, 2 days
Experimental: as §1

CLS-54 (CLS 300227) = test: Cytotoxicity assay (Resazurin); type: cell-based; settings: Homo sapiens, 48 h, 2 days
Experimental: as §1

THP-1 (ATCC TIB-202) = test: Cytotoxicity assay (Resazurin); type: cell-based; settings: Homo sapiens, THP-1, 48 h, 2 days
Experimental: as §1

HepG2 (CLS 300198) = test: Cytotoxicity assay (Resazurin); type: cell-based; settings: Homo sapiens, HepG2, 48 h, 2 days
Experimental: as §1

HuH7 (CLS 300156) = test: Cytotoxicity assay (Resazurin); type: cell-based; settings: Homo sapiens, Huh-7, 48 h, 2 days
Experimental: as §1

[3] = test system: S. aureus mutant M4 (parental strain Mu50); test: MIC of spontaneously resistant mutant; type: cell-based, Staphylococcus aureus; settings: for MIC90: Staphylococcus aureus
Experimental: (§2) The minimal inhibitory concentration (MIC) has been determined according to the CSLI guidelines (CLSI [2012]). Briefly, in a sterile polystyrene U-bottom 96-well plate, a 2-fold serial dilution ranging from 100 to 0.78 μM of testing compounds has been prepared in 50 μL MHB. A freshly inoculated S. aureus culture was grown until OD600 nm of approx. 0.6 and diluted to 10^6 CFU/mL in MHB. Finally, 50 μL of the latter cell suspension was added to each well and then incubated statically for 18–24 h at 37 °C. MIC was determined using BacTiterGlo ATP assay (Promega, Madison, WI, USA) and Tecan Infinite F200 Pro (Tecan, Männedorf, Switzerland). Moxifloxacin and DMSO were used as positive and negative control, respectively. Sublethal concentrations of colistin (0.1 μM) were used in some experiments to increase the permeability of the gram-negative cell envelope for compound testing. For E. cloacae, a broth microdilution assay was performed using a serial 2-fold dilution in 96-well flat-bottomed plates (Falcon, BD Bioscience, Heidelberg) of both PPs in broth LB medium (Roth, Karlsruhe) at a concentration range of 50–0.024 μM.
(§3) Spontaneous resistant mutants have been generated with 2-bromo-PP and 3-bromo-PP to further investigate the mechanism of antibacterial action and resistance. Since isolation of spontaneous resistant mutants in one step was not successful on solid media containing 2-bromo-PP or 3-bromo-PP (i.e. resistance frequency < 10^−7 at 5-fold MIC), enrichment was done by passaging bacteria daily in liquid media containing increasing sublethal concentrations of PPs. […] Moreover, we observed cross-resistance between PPs since 2-bromo-PP-resistant mutants were also resistant against 3-bromo-PP and vice versa (Fig. 4a; Table 2).

[4] = test system: S. aureus mutant M1 (parental strain ATCC 25923); test: MIC of spontaneously resistant mutant; type: cell-based, Staphylococcus aureus; settings: for MIC90: Staphylococcus aureus, ATCC25923
Experimental: as §2, §3

[5] = test system: S. aureus mutant M5 (parental strain Mu50); test: MIC of spontaneously resistant mutant; type: cell-based; settings: Staphylococcus aureus
Experimental: as §2, §3

[6] = test system: S. aureus mutant M3 (parental strain ATCC 25923); test: MIC of spontaneously resistant mutant; type: cell-based; settings: Staphylococcus aureus, ATCC25923
Experimental: as §2, §3

[7] = test system: S. aureus mutant M2 (parental strain ATCC 25923); test: MIC of spontaneously resistant mutant; type: cell-based; settings: Staphylococcus aureus, ATCC25923
Experimental: as §2, §3

[8] = test system: S. aureus mutant M6 (parental strain Mu50); test: MIC of spontaneously resistant mutant; type: cell-based; settings: Staphylococcus aureus
Experimental: as §2, §3

human PBMNCs = test system: human PBMNCs; design: method as in Mayer et al. [2019]; settings: ref Mayer et al. [2019]; cited from earlier work
preformed MRSA biofilms = test: Biofilm integrity (crystal violet staining, Alcian blue fluorescence microscopy); type: cell-based, Staphylococcus aureus
Experimental: Viability was measured as described above utilizing the Resazurin reduction assay. Biofilm formation was measured using crystal violet staining as described elsewhere (Christensen et al. [1985]; Stepanovic et al. [2007]). Briefly, biofilms were washed three times with PBS and allowed to air dry before 0.1% (v/v) crystal violet solution (Waldeck GmbH & Co., Münster, Germany) was added to each well. The biofilms were stained for 15 min at room temperature (RT). Afterwards, the plates were washed three times again with PBS, and 30% acetic acid was added for 30 min at RT to solubilise the dye. Finally, 100 μL was transferred to a fresh 96-well plate to measure absorption at 600 nm with a plate reader.
Biofilms were pre-grown as described above. Alcian blue staining was performed to stain the EPS. A 1% Alcian blue staining solution was prepared in 3% glacial acetic acid. Staining solution was added to the biofilm in sufficient amount to cover the whole biofilm and incubated for 30 min at RT. Next, the biofilm was washed twice with PBS, and 200 μL 10% formalin solution was added. Fluorescence microscopy was performed using a Nikon Eclipse TS100 fluorescence microscope.

[9] = test system: persisters of P. aeruginosa POA1; test: Antipersister activity assay (Resazurin); type: cell-based; settings: Pseudomonas aeruginosa, 24 h, read-out: MIC against persisters
[10] = test system: Enterobacter cloacae isolate 3678; test: MIC determination (broth microdilution in LB medium); type: cell-based
Experimental: as §2

Structure (SMILES) | concentration inhibiting viability of cells in biofilms (maximal effect) [1] [µM] | concentration of complete inhibition of cell viability in biofilms [2] [µM] | IC50 (HEK293 (CLS 300192)) [µM] | IC50 (MRC-5 (ATCC CCL-171)) [µM] | IC50 (CLS-54 (CLS 300227)) [µM] | IC50 (THP-1 (ATCC TIB-202)) [µM] | IC50 (HepG2 (CLS 300198)) [µM] | IC50 (HuH7 (CLS 300156)) [µM] | MIC90 [3] | MIC90 [4] | MIC90 [5] | MIC90 [6] | MIC90 [7] | MIC90 [8] | cytotoxicity (human PBMNCs) | biofilm integrity / dispersal (preformed MRSA biofilms) | MIC [9] [µM] | MIC90 [10] | MIC shift against 3-bromo-PP ([3]; mutant M4 raised against 3-bromo-PP, vs parental strain Mu50) [×] | MIC shift against 3-bromo-PP ([4]; mutant M1 raised against 2-bromo-PP, vs parental strain) [×]
Oc1c(Br)cc(Br)cc1Oc1ccc(Br)cc1Br [2-bromo-PP, 4,6-dibromo-2-(2′,4′-dibromophenoxy)phenol] | 100 | 25 | 12.5 | > 100 | > 100 | 6.25 | 50 | > 100 | 1.56 µM and 0.78 µg/mL | 1.56 µM and 0.78 µg/mL | 1.56 µM and 0.78 µg/mL | 0.78 µM and 0.39 µg/mL | 1.56 µM and 0.78 µg/mL | 0.78 µM and 0.39 µg/mL | low cytotoxicity | Neither 2-bromo-PP (light blue triangle) nor 3-bromo-PP (blue inverted triangle) disperse biofilms | 12.5 (≈ 6.27 µg/mL) | 12.5 µM and 6.27 µg/mL |  | 
Oc1c(Br)cc(Br)c(Br)c1Oc1ccc(Br)cc1Br [3-bromo-PP, 3,4,6-tribromo-2-(2′,4′-dibromophenoxy)phenol] | 12.5 | 50 | 3.12 | 100 | > 100 | 50 | 25 | > 100 | 3.12 µM and 1.81 µg/mL | 3.12 µM and 1.81 µg/mL | 3.12 µM and 1.81 µg/mL | 6.25 µM and 3.63 µg/mL | 3.12 µM and 1.81 µg/mL | 3.12 µM and 1.81 µg/mL | low cytotoxicity | Neither 2-bromo-PP (light blue triangle) nor 3-bromo-PP (blue inverted triangle) disperse biofilms | 50 (≈ 29 µg/mL) | 12.5 µM and 7.26 µg/mL | 32 | 4
